Data published in ChEMBL document CHEMBL1201862, “PubChem BioAssay data set” (2004).
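How tested: cells in 96-well plates exposed to compound for 48 hours at five concentrations. GI50 marks 50% less growth.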 Active and inactive are the calls of the source. Rule as the data show it: active = GI50 up to about 1.1 µM and inactive = higher.

Legend:
Assay in all cases: DTP human tumour cell line panel, 48 h
SR = tested on: SR
HT-29 = tested on: HT-29
OVCAR-5 = tested on: OVCAR-5
A498 = tested on: A498
786-0 = tested on: 786-0
SK-MEL-5 = tested on: SK-MEL-5
M14 = tested on: M14
KM12 = tested on: KM12
NCI-H522 = tested on: NCI-H522
Hs-578T = tested on: Hs-578T
A549 = tested on: A549
MDA-MB-435 = tested on: MDA-MB-435
TK-10 = tested on: TK-10
UACC-257 = tested on: UACC-257
HCT-15 = tested on: HCT-15
CAKI-1 = tested on: CAKI-1
SK-OV-3 = tested on: SK-OV-3
SNB-19 = tested on: SNB-19
EKVX = tested on: EKVX
Malme-3M = tested on: Malme-3M

SMILES	GI50 (SR)	GI50 (HT-29)	GI50 (OVCAR-5)	GI50 (A498)	GI50 (786-0)	GI50 (SK-MEL-5)	GI50 (M14)	GI50 (KM12)	GI50 (NCI-H522)	GI50 (Hs-578T)	GI50 (A549)	GI50 (MDA-MB-435)	GI50 (TK-10)	GI50 (UACC-257)	GI50 (HCT-15) [µM]	GI50 (CAKI-1)	GI50 (SK-OV-3)	GI50 (SNB-19)	GI50 (EKVX)	GI50 (Malme-3M)
CC1=CC(C)C(C)N(CCNC(=O)Nc2ccccc2)c2ccccc21 (stereo not given)	16.3 µM (inactive)	12 µM (inactive)	19.5 µM (inactive)	16.2 µM (inactive)	30.3 µM (inactive)	14.1 µM (inactive)	23.8 µM (inactive)	26.8 µM (inactive)	12.1 µM (inactive)	2.33 µM (inactive)	12 µM (inactive)	25.1 µM (inactive)	20.9 µM (inactive)	13.7 µM (inactive)	21.9	19.5 µM (inactive)	19.1 µM (inactive)	20.3 µM (inactive)	25.9 µM (inactive)	24.6 µM (inactive)
Cc1c(F)c(N)c2c(=O)cc(-c3ccc(N)c(F)c3)oc2c1F [AMINOFLAVONE]	18.7 µM (inactive)	33.7 µM (inactive)	0.15 µM (active)	0.366 µM (active)	14.2 µM (inactive)	20.4 µM (inactive)	57.3 µM (inactive)	21.9 µM (inactive)	9.71 µM (inactive)	38.1 µM (inactive)	2.09 µM (inactive)	43.5 µM (inactive)	0.258 µM (active)	0.298 µM (active)	33.3	< 0.0131 µM (active)	17.6 µM (inactive)	21 µM (inactive)	13.7 µM (inactive)	33.5 µM (inactive)
